Patent US20240251802A1, “USE OF SATIVENE, AND RECOMBINANT BIOCONTROL FUNGUS AND MUSCARDINE CADAVER AND USE THEREOF” (priority 2022, published 2024)
Entries after “also recorded” stand apart in the source; their conditions may differ.

Key:
Type in all cases: in vivo
[1] = system: Aedes albopictus adults; test: Two-way choice method, attraction of adult mosquitoes; conditions: for content with the strongest attraction on mosquitoes: content gradients 10^−5 g to 10^−9 g on cotton balls vs n-hexane control, FIG. 2C/2D
Experimental: The detection on attraction of muscardine cadavers to mosquito (Aedes albopictus) adults was conducted according to a relevant literature (Robinson Ailic, Busula Annette O, Voets Mirjam A, Beshir Khalid B, Caulfield John C. Powers Stephen J, Verhulst Niels O, Winskill Peter, Muwanguzi Julian, Birkett Michael A, Smallegange Renate C, Masiga Daniel K, Mukabana W Richard, Sauerwein Robert W, Sutherland Colin J, Bousema Teun, Pickett John A, Takken Willem, Logan James G, de Boer Jetske G. Plasmodium-associated changes in human odor attract mosquitoes. Proc Natl Acad Sci USA 2018; 115: 4215), and the device used was shown in FIG. 1D. One of freeze-killed Galleria mellonella larvae (control) and one of the resulting Galleria mellonella muscardine cadaver were placed in a 3.5 cm ampoule, and placed in cylinders on both sides of the device. 10 female mosquitoes without blood meal 3 d to 5 d after eclosion were placed in the middle of a tube 1. Openings at both ends of the tube 1 were covered with gauze, and the tube was placed in a refrigerator at 4° C. for 3 min to reduce mosquito activities. Then the tube 1 was connected to tubes 2 and 3. The whole device was placed in a dark incubator at 26° C., and the selection of mosquitoes was recorded after 10 h. A Response index was calculated [the Response index=the number of mosquitoes selecting Galleria mellonella muscardine cadavers−the number of mosquitoes selecting freeze-killed Galleria mellonella larvae)/the total number of mosquitoes].
The muscardine cadaver was replaced by circular filter paper with a 5 mm diameter (containing 10 μl of different concentrations solutions of longifolene or sativene), and a control was a filter paper containing 10 μl of n-hexane solvent. Similarly, the method for detecting the attraction of muscardine cadavers to Galleria mellonella larvae and mosquitoes adults was also used to analyze the attraction of longifolene and sativene to these two kinds of insects. In the Galleria mellonella attractive device, the muscardine cadaver was replaced by cotton balls with about 2 cm diameter (containing 100 μl different concentrations solutions of longifolene or sativene), and a control was cotton balls containing 100 μl of n-hexane solvent. […]
(§1) According to the above device, the attraction of transgenic strain Mr-Tps and WT strain grown on PDA and on fermentation medium to mosquitoes was compared. The mycelia of transgenic strain Mr-Tps and WT strain grown on PDA and on fermentation medium for 14 d and with a fresh weight of 0.3 g were placed on both sides of the device, respectively, and a preference percentage was calculated after a period of treatment, where the preference percentage=the number of insects selecting mycelia of transgenic strain and WT strain/the total number of insects.

[2] = system: Drosophila larvae; test: Two-way choice method, attraction of Drosophila larvae; conditions: FIG. 2A/2B; for concentration dependence of attraction on Drosophila larvae: content gradients 10^−5 g to 10^−11 g
Experimental: Two-way choice method was used to detect the attraction of Galleria mellonella muscardine cadavers to Drosophila healthy larvae, with the device shown in FIG. 1A. New freezing-killed Galleria mellonella larvae were kept at a room temperature for 20 min(control) and one of the resulting Galleria mellonella muscardine cadaver was placed on both sides of a 9 cm petri dish (containing 2% water agar), and then 20 healthy 3-instar Canton-S Drosophila larvae were placed in the middle part of the petri dish. After 10 min, photographing was conducted to record the selection of Drosophila larvae, and a Response index was calculated [the Response index=(the number of Drosophila larvae selecting Galleria mellonella muscardine cadaver−the number of Drosophila larvae selecting control Galleria mellonella larvae)/the total number of Drosophila larvae (20)]. The experiment was repeated 6 times.
(§2) The muscardine cadaver was replaced by circular filter paper with a 5 mm diameter (containing 10 μl of different concentrations solutions of longifolene or sativene), and a control was a filter paper containing 10 μl of n-hexane solvent. Similarly, the method for detecting the attraction of muscardine cadavers to Galleria mellonella larvae and mosquitoes adults was also used to analyze the attraction of longifolene and sativene to these two kinds of insects. […]
as §1

[3] = system: Galleria mellonella larvae; test: Improved Two-way choice method, attraction of Galleria mellonella larvae; conditions: cotton balls with 100 μl solution vs n-hexane control, FIG. 3
Description: An improved Two-way choice method was used to detect the attraction of Galleria mellonella muscardine cadavers to Galleria mellonella healthy larvae, with the device shown in FIG. 1B. Three freeze-killed Galleria mellonella larvae (control) and three the resulting Galleria mellonella muscardine cadavers were placed in 9 cm petri dishes, and the petri dishes were placed diagonally in the device; 40 healthy Galleria mellonella larvae were released at the center point of the device, and placed at room temperature in dark. The selection of healthy Galleria mellonella larvae was recorded after 1 h. A Response index was calculated [the Response index=the number of Galleria mellonella larvae selecting Galleria mellonella muscardine cadavers−the number of Galleria mellonella larvae selecting freeze-killed Galleria mellonella larvae)/the total number of Galleria mellonella larvae]. The experiment was repeated 6 times.
as §2

Row | Compound | response of mosquitoes at 10^−9 g ([1]; 10^−9 g, FIG. 2C) | content with the strongest attraction on mosquitoes [1] | concentration dependence of attraction on Drosophila larvae [2] | attraction of Galleria mellonella larvae [3] | concentration dependence of attraction on mosquitoes ([1]; content gradients 10^−5 g to 10^−9 g, FIG. 2D) | lowest level to which Drosophila larvae respond ([2]; content gradients 10^−5 g to 10^−11 g on filter paper vs n-hexane control)
1 | C=C1[C@H]2CC[C@@H]3[C@H]2C(C)(C)CCC[C@]13C [longifolene] | little response | 10^−6 g | a higher concentration of the longifolene and sativene had a stronger attraction | could also attract | – | –
2 | C=C1C2CCC3C2C(C(C)C)CCC13C (stereo not drawn) [sativene] | – | 10^−5 g | a higher concentration of the sativene has a stronger attracting effect; also recorded: a higher concentration of the longifolene and sativene had a stronger attraction | has insect attracting properties; also recorded: could also attract | a higher concentration of the sativene has a stronger attracting effect; also recorded: a higher concentration of the sativene had a stronger attraction | ≤ 10^−11 g
